Where “and” joins values, the source holds several entries; their conditions need not be identical. Equal values may be shown once.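 Following 48 hours of exposure in 96-well plates, responses at five concentrations were used to interpolate endpoints linearly. The concentration for 50% growth inhibition is given as GI50. At the TGI there is no net growth.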
Assays:
Experiment in all cases: NCI tumour cell line growth inhibition, 48 h
XF 498 CNS = system: XF 498 CNS
DMS 273 small cell lung = system: DMS 273 small cell lung
M19-MEL melanoma = system: M19-MEL melanoma
LXFL 529 NSCLC = system: LXFL 529 NSCLC
SNB-78 CNS = system: SNB-78 CNS
KM20L2 colon = system: KM20L2 colon
DLD-1 colon = system: DLD-1 colon
MDA-N = system: MDA-N
RXF-631 renal = system: RXF-631 renal
P388 leukemia = system: P388 leukemia
SN12K1 renal = system: SN12K1 renal

SMILES | TGI (XF 498 CNS) | TGI (DMS 273 small cell lung) | TGI (M19-MEL melanoma) | TGI (LXFL 529 NSCLC) | TGI (SNB-78 CNS) | TGI (KM20L2 colon) [µM] | TGI (DLD-1 colon) | TGI (MDA-N) [µM] | other results
CN(C(=O)C12C3C4C1C1C2C3C41C(N)=O)C(C)(C)C (centres undefined) | > 100 µM | > 100 µM | > 100 µM | > 100 µM | > 100 µM | – | – | – | –
COc1ccc2c(c1)C(=O)c1ccc(OC)cc1C2=S | > 100 µM | > 100 µM | > 100 µM | – | > 100 µM | > 100 | > 100 µM | – | –
COc1cc(OC)c2nc(C)c3c(c2c1)SCC3 | – | – | – | – | – | – | – | 85 | –
O=C1NNC2(C(=O)N1)c1ccccc1-c1ccccc12 | – | – | – | – | – | – | – | > 10 | –
O=C1CCCCC1S(=O)(=O)c1ccccc1 (centres undefined) | > 100 µM | > 100 µM | > 100 µM | > 100 µM | > 100 µM | > 100 | > 100 µM | – | –
O=C1Nc2ccc(Br)cc2C1=Nc1cccnc1 | – | – | – | – | – | – | – | 34.7 | –
C[C@@]12CCC(=O)c3coc(c31)C(=O)c1cc3c(cc12)C(=O)C=CC3=O | > 1 µM and 33.4 µM | > 1 µM and 30 µM | > 1 µM and 15.7 µM | > 1 µM and 31.3 µM | > 1 µM and 47.8 µM | > 100 | > 1 µM and 30.5 µM | – | GI50 (KM20L2 colon): > 1 µM; GI50 (XF 498 CNS): > 1 µM; GI50 (DLD-1 colon): > 1 µM; GI50 (DMS 273 small cell lung): > 1 µM; GI50 (M19-MEL melanoma): > 1 µM; GI50 (LXFL 529 NSCLC): > 1 µM; GI50 (SNB-78 CNS): > 1 µM
O=S(=O)(/C=C/c1ccc(F)cc1)Cc1ccc(CS(=O)(=O)/C=C/c2ccc(F)cc2)cc1 | > 100 µM | > 100 µM | > 100 µM | > 100 µM | > 100 µM | > 100 | > 100 µM | – | TGI (RXF-631 renal): > 100 µM
CCOC(C[C@H](O[Si](C)(C)C(C)(C)C)[C@H]1COC(=S)S1)OCC | 66.7 µM | 73.9 µM | > 100 µM | > 100 µM | – | > 100 | – | – | –
COc1cccc(N2C(=O)C3c4[nH]c5ccccc5c4C4CCCC4C3C2=O)c1 (centres undefined) | – | – | – | – | – | – | – | > 10 | –
Cc1cc(NC(=O)NC(=O)c2ccccc2NC(=O)C(C)N)ccc1Oc1ncc(Br)cn1 (centres undefined) | – | > 32.7 µM | > 100 µM | > 100 µM | 92.6 µM | 0.459 | > 100 µM | 0.148 | –
O=c1cnn(C2OC(CO)C(O)C2O)c(=S)[nH]1 (centres undefined) | > 100 µM | > 100 µM | > 100 µM | > 100 µM | > 100 µM | > 100 | > 100 µM | > 100 | TGI (P388 leukemia): 11.2 µM; TGI (SN12K1 renal): > 100 µM; TGI (RXF-631 renal): > 100 µM
C=C1CC2OC(=O)C(=C)C2C(O)C2C(=C)CCC12 (centres undefined) | – | 22.2 µM | 20.1 µM | 16.7 µM | 20.6 µM | – | 30.9 µM | – | –
Cc1ccc2c(c1)-c1c3c(nn1-c1ccccc1)-c1ccccc1SC3O2 (centres undefined) | > 100 µM | > 100 µM | – | > 100 µM | > 100 µM | > 100 | > 100 µM | – | TGI (RXF-631 renal): 16.1 µM
COC(C(=O)NN)c1ccccc1 (centres undefined) | – | – | – | – | – | – | – | > 100 | –
NC(=O)CN(CC(N)=O)C(N)=O | > 100 µM | > 100 µM | > 100 µM | > 100 µM | > 100 µM | > 100 | – | – | –
COC(=O)C1(Cc2ccc3c(c2)CCC3)Cc2ccccc2C1O (centres undefined) | – | – | – | – | – | – | – | 13.5 | –
O=C(c1ccc(Cl)cc1Cl)C1[C@H]2C(=O)N(c3ccc(Cc4ccc(N5C(=O)[C@@H]6ON(c7ccccc7)C(C(=O)c7ccc(Cl)cc7Cl)[C@@H]6C5=O)cc4)cc3)C(=O)[C@H]2ON1c1ccccc1 (some centres undefined) | – | > 50 µM | > 50 µM | > 50 µM | > 50 µM | > 50 | > 50 µM | – | TGI (RXF-631 renal): > 50 µM
CC1(C)CC(O)C(C)(C)[C@@H](O)C1 (some centres undefined) | – | – | – | – | – | – | – | > 100 | –
C[C@H]1CC[C@@]2(NC1)O[C@H]1C[C@H]3[C@@H]4CC[C@H]5C[C@@H](O)CC[C@]5(C)[C@H]4CC[C@]3(C)[C@H]1[C@@H]2C | – | – | – | – | – | – | – | > 100 | –
N/N=C(/C(=O)Nc1cccc(Cl)c1)C(C(=O)c1ccc(O)cc1O)C1OC(=O)c2ccccc21 (centres undefined) | – | > 100 µM | > 100 µM | > 100 µM | > 100 µM | > 100 | – | – | –
NNC(=O)C1CCC(=O)N1S(=O)(=O)c1ccccc1 (centres undefined) | > 100 µM | > 100 µM | > 100 µM | > 100 µM | > 100 µM | > 100 | > 100 µM | – | –
CCOc1cc2c(C(=O)CC)c(O)ccc2o1 | > 80.1 µM | > 100 µM | > 63.7 µM | > 100 µM | > 100 µM | > 100 | > 43.2 µM | – | –
CC1CCC/C1=C(/I)C(=O)c1ccccc1 (centres undefined) | – | – | – | – | – | – | – | > 100 | –
OC1(C23CC4CC(CC(C4)C2)C3)CSCC1(O)C12CC3CC(CC(C3)C1)C2 (centres undefined) | > 100 µM | > 100 µM | > 100 µM | > 100 µM | > 100 µM | – | > 100 µM | – | TGI (RXF-631 renal): > 100 µM
Cc1cn(C2CC3C(COCN3O)O2)c(=O)[nH]c1=O (centres undefined) | > 100 µM | > 100 µM | > 100 µM | > 100 µM | – | > 100 | – | – | –
CC(=O)NCCC1CN(C(=O)/C=C/I)c2ccccc21 (centres undefined) | – | – | – | – | – | – | – | 9.26 | –

Source: PubChem BioAssay (NCI)
